Molecules are shown by their SMILES. Counter-ions that a name gives are not always drawn. Like-named read-outs stand apart in the source and are kept apart here.

Set-up in all cases: species or system AML cell lines (8); Primary HTS, single concentration about 10 uM, Cell Titer Glo viability; log10 luminescence, per cent inhibition relative to cycloheximide control
Settings in all cases: 72 h, relative to cycloheximide control, log10 luminescence, inhibitor

The subject of test [1] is CHRF288-11.
The test system of test [2] is CMK.
Test [3] deals with CMS.
For test [4], the system named is M07e.
Test [5] has as its system ML-2.
Test [6] deals with MOLM-13.
In test [7] the test system is MV4-11.
Test [8] relates to U937.

Take `COc1cccc(F)c1C(=O)c1cnc(NC2CCN(S(C)(=O)=O)CC2)nc1N` [SJ000581178-1]: the CHRF288-11 %inh in test [1] was determined as 12.21%. In addition, the CMK %inh in test [2] is 27.9%. Besides, the CMS %inh in test [3] is 16.64%. Moreover, in test [4], the M07e %inh is 26.23%. The ML-2 %inh in test [5] is given as 11.75%. In test [6], the MOLM-13 %inh was determined as 39.82%. Besides, in test [7], the MV4-11 %inh turned out to be 20.51%. Also, in test [8], the U937 %inh amounted to 27.27%.
For `CCn1c(-c2nonc2N)nc2c(C#CC(C)(C)O)ncc(OC[C@@H]3CCCN3)c21` [SJ000573333-1, ML205742-149B0], the CHRF288-11 %inh in test [1] came out at 13.49%. The CMK %inh in test [2] was 15.2%. Besides, in test [3], the CMS %inh is 14%. In addition, the M07e %inh in test [4] was 9.925%. For the same compound, the ML-2 %inh in test [5] is 7.469%. In addition, the MOLM-13 %inh in test [6] turned out to be 74.82%. Further, the MV4-11 %inh in test [7] turned out to be 16.86%. Also, the U937 %inh in test [8] is on record as 42.79%.
In the case of `COc1ccccc1-c1cc(/C=C2\C(=O)Nc3ncc(Br)cc32)cc(Br)c1O` [SJ000573253-1, U16719/161/1], the CHRF288-11 %inh in test [1] is recorded as -3.427%. Moreover, in test [2], the CMK %inh is 2.536%. Further, in test [3], the CMS %inh is -1.153%. For the same compound, the M07e %inh in test [4] was 2.858%. Besides, the ML-2 %inh in test [5] was 1.918%. Further, in test [6], the MOLM-13 %inh is listed as -1.113%. Further, the MV4-11 %inh in test [7] was 0.2955%. Besides, the U937 %inh in test [8] is -3.171%.
For the compound `O=C1Nc2ccc(-c3cccnc3)cc2C1=Cc1cc(Br)c(O)c(Br)c1` [SJ000573213-1, R10489/16/2], in test [1], the CHRF288-11 %inh is reported as 4.693%. The CMK %inh in test [2] was 0.4308%. For the same compound, the CMS %inh in test [3] is on record as -1.986%. In test [4], the M07e %inh turned out to be 2.589%. Further, in test [5], the ML-2 %inh was found to be 4.287%. In addition, the MOLM-13 %inh in test [6] was 4.678%. The MV4-11 %inh in test [7] was -0.07867%. For the same compound, the U937 %inh in test [8] was -1.775%.
For the compound `CC1=C(C(=O)Nc2ccc3[nH]ncc3c2)C(c2ccc(Cl)c(Cl)c2)CC(=O)N1` (stereo not shown) [SJ000573256-1, SD205340-087A3], the CHRF288-11 %inh in test [1] is listed as 13.93%. Moreover, the CMK %inh in test [2] is given as 25.41%. Also, the CMS %inh in test [3] was 3.826%. For the same compound, the M07e %inh in test [4] was found to be 6.129%. In addition, the ML-2 %inh in test [5] is 6.91%. Moreover, the MOLM-13 %inh in test [6] is listed as 0.01758%. For the same compound, the MV4-11 %inh in test [7] stood at 13.75%. For the same compound, the U937 %inh in test [8] turned out to be 2.616%.
Regarding `Nc1ncnc2occ(-c3ccc(NC(=O)Nc4cccc(C(F)(F)F)c4)cc3)c12` [SJ000573045-1, CL210513-033A3], in test [1], the CHRF288-11 %inh worked out at 45.6%. The CMK %inh in test [2] worked out at 22.69%. Moreover, the CMS %inh in test [3] was determined as 11.5%. Further, the M07e %inh in test [4] came to 17.9%. In addition, the ML-2 %inh in test [5] is on record as 6.046%. Besides, in test [6], the MOLM-13 %inh stood at 88.68%. Moreover, the MV4-11 %inh in test [7] was found to be 73.96%. The U937 %inh in test [8] came out at 26.65%.
For `COc1ccc2c(-c3ccnc(Nc4cccc(OC(F)(F)F)c4)n3)cnn2n1` [SJ000573232-1, U17838/93/4], in test [1], the CHRF288-11 %inh is given as 5.074%. Further, the CMK %inh in test [2] is on record as -2.18%. Also, the CMS %inh in test [3] is 1.867%. Further, in test [4], the M07e %inh was found to be 3.247%. Moreover, in test [5], the ML-2 %inh came to 8.399%. For the same compound, the MOLM-13 %inh in test [6] is -2.645%. Also, the MV4-11 %inh in test [7] is reported as 0.503%. Moreover, the U937 %inh in test [8] came out at 2.538%.
Regarding `Cn1cc(C2=C(c3c4n(c5ccccc35)CCN(C(N)=S)C4)C(=O)NC2=O)c2ccccc21` [SJ000581017-1], the CHRF288-11 %inh in test [1] is given as 61.39%. Besides, in test [2], the CMK %inh turned out to be 110.3%. Also, in test [3], the CMS %inh came to 66.21%. The M07e %inh in test [4] stood at 14.07%. In test [5], the ML-2 %inh is 14.21%. Also, in test [6], the MOLM-13 %inh is given as 83.86%. Also, the MV4-11 %inh in test [7] came to 52.04%. Also, the U937 %inh in test [8] stood at 15.09%.
On to `CN(C(=O)c1cc2ccccc2cc1C(=O)C(c1cccc2ccccc12)P(=O)(O)O)C1CCN(C(=O)c2ccccc2)CC1` (stereo not shown) [SJ000556691-1, CATHEPSIN G INHIBITOR I], for which the CHRF288-11 %inh in test [1] stood at 9.27%. In addition, the CMK %inh in test [2] is listed as 10.35%. In test [3], the CMS %inh is on record as 2.107%. In addition, the M07e %inh in test [4] worked out at 0.0007022%. For the same compound, in test [5], the ML-2 %inh was 0.3338%. In addition, the MOLM-13 %inh in test [6] stood at 0.5105%. In test [7], the MV4-11 %inh is 1.483%. Also, the U937 %inh in test [8] is -1.516%.
`CN=C1NC(=O)/C(=C/c2ccc3ncccc3c2)S1` [SJ000581072-1]: in test [1], the CHRF288-11 %inh is given as 174.6%. Also, in test [2], the CMK %inh is given as 44.3%. Further, the CMS %inh in test [3] is 9.143%. In addition, the M07e %inh in test [4] came to 18.48%. Moreover, in test [5], the ML-2 %inh was determined as 4.634%. Moreover, the MOLM-13 %inh in test [6] stood at 28.17%. The MV4-11 %inh in test [7] is on record as 9.718%. In addition, the U937 %inh in test [8] stood at 7.703%.
`CN1C(C(=O)Nc2ccccn2)=C(O)c2ccccc2S1(=O)=O` [SJ000285539-8, PIROXICAM]: the CHRF288-11 %inh in test [1] (CHRF288-11 %inh, 10 µM) was -0.4698%. Also, the CMK %inh in test [2] (CMK %inh, 10 µM) was -3.417%. Moreover, the CMS %inh in test [3] (CMS %inh, 10 µM) was 1.221%. In test [4] (M07e %inh, 10 µM), the M07e %inh is recorded as 1.469%. In test [5] (ML-2 %inh, 10 µM), the ML-2 %inh was 0.7358%. The MOLM-13 %inh in test [6] (MOLM-13 %inh, 10 µM) is -0.7172%. In addition, in test [7] (MV4-11 %inh, 10 µM), the MV4-11 %inh came to 0.9197%. For the same compound, the U937 %inh in test [8] (U937 %inh, 10 µM) is given as -0.5241%.
Consider `[O-][S+]1CCN(Cc2ccc(-c3ccc4ncnc(Nc5ccc(OCc6ccccc6)c(Cl)c5)c4c3)o2)CC1` [SJ000573105-1, U14859/143/2], for which the CHRF288-11 %inh in test [1] was found to be 0.5474%. Moreover, the CMK %inh in test [2] worked out at 4.729%. Also, the CMS %inh in test [3] is recorded as -1.021%. Besides, in test [4], the M07e %inh was -0.2789%. In test [5], the ML-2 %inh was -0.9946%. Besides, in test [6], the MOLM-13 %inh is 4.138%. In test [7], the MV4-11 %inh came out at 5.18%. The U937 %inh in test [8] is 1.842%.
Turning to `COc1ccccc1CCN=C1NC(=O)/C(=C/c2ccc3ncccc3c2)S1` [SJ000581106-1], the CHRF288-11 %inh in test [1] is 4.589%. Also, the CMK %inh in test [2] worked out at 41.08%. Further, the CMS %inh in test [3] worked out at 4.605%. Moreover, the M07e %inh in test [4] was 24.66%. Besides, in test [5], the ML-2 %inh is listed as 10.31%. The MOLM-13 %inh in test [6] is on record as 8.02%. Besides, the MV4-11 %inh in test [7] came out at 10.91%. Besides, the U937 %inh in test [8] was found to be 6.939%.
Regarding `CC1=C(/C=C/C(C)=C/C=C/C(C)=C/C(=O)O)C(C)(C)CCC1O` (stereo not shown) [SJ000561070-1, 4-HYDROXYRETINOIC ACID], in test [1], the CHRF288-11 %inh is -3.112%. Also, the CMK %inh in test [2] is 1.361%. Further, the CMS %inh in test [3] is recorded as 38.35%. Moreover, the M07e %inh in test [4] is recorded as 7.941%. In addition, in test [5], the ML-2 %inh is on record as 5.11%. In addition, the MOLM-13 %inh in test [6] turned out to be 7.362%. In addition, in test [7], the MV4-11 %inh stood at 34.76%. The U937 %inh in test [8] was determined as 18.11%.
Take `Clc1ccc(C(Cn2ccnc2)OCc2ccsc2Cl)c(Cl)c1` (single isomer, unassigned) [SJ000556739-1, TIOCONAZOLE]: the CHRF288-11 %inh in test [1] (CHRF288-11 %inh, 10 µM) came out at 35.73%. Also, in test [2] (CMK %inh, 10 µM), the CMK %inh came out at 41.48%. The CMS %inh in test [3] (CMS %inh, 10 µM) amounted to 7.938%. In test [4] (M07e %inh, 10 µM), the M07e %inh amounted to 14.34%. For the same compound, in test [5] (ML-2 %inh, 10 µM), the ML-2 %inh came out at 9.708%. In test [6] (MOLM-13 %inh, 10 µM), the MOLM-13 %inh is 23.12%. Also, in test [7] (MV4-11 %inh, 10 µM), the MV4-11 %inh stood at 16.99%. Besides, in test [8] (U937 %inh, 10 µM), the U937 %inh was found to be 20.14%.
`Cc1ccccc1N1CCN(CCc2nnc3n2CCCC3)CC1` [SJ000565164-2, DAPIPRAZOLE HYDROCHLORIDE]: the CHRF288-11 %inh in test [1] (CHRF288-11 %inh, 10 µM) is on record as 1.908%. In addition, the CMK %inh in test [2] (CMK %inh, 10 µM) is -2.237%. Also, the CMS %inh in test [3] (CMS %inh, 10 µM) is -0.5071%. The M07e %inh in test [4] (M07e %inh, 10 µM) worked out at 0.4169%. In test [5] (ML-2 %inh, 10 µM), the ML-2 %inh worked out at 1.742%. Moreover, the MOLM-13 %inh in test [6] (MOLM-13 %inh, 10 µM) is recorded as 3.696%. Also, in test [7] (MV4-11 %inh, 10 µM), the MV4-11 %inh is given as 0.3008%. For the same compound, in test [8] (U937 %inh, 10 µM), the U937 %inh is given as -1.057%.
For the compound `Nc1nccc(-c2c(-c3ccc(F)cc3)ncn2C2CCNCC2)n1` [SJ000573168-2, JB-19127-269D | LD19161-244A1], in test [1] (CHRF288-11 %inh, 10 µM), the CHRF288-11 %inh amounted to 101.4%. Further, the CMK %inh in test [2] (CMK %inh, 10 µM) was found to be 34.82%. For the same compound, the CMS %inh in test [3] (CMS %inh, 10 µM) worked out at 15.45%. Also, the M07e %inh in test [4] was 16.87%. Further, in test [5] (ML-2 %inh, 10 µM), the ML-2 %inh stood at 28.94%. Besides, in test [6] (MOLM-13 %inh, 10 µM), the MOLM-13 %inh amounted to 78.79%. The MV4-11 %inh in test [7] (MV4-11 %inh, 10 µM) is listed as 54.74%. Also, the U937 %inh in test [8] (U937 %inh, 10 µM) came to 15.47%.

Source of the values: article PMC6522510 (Nature Communications, 2019).
